For test [1], the system named is interferon regulatory factor (IRF) pathway in THP-1 dual cells. In words: THP-1 Dual Reporter Assay, IRF pathway (luciferase reporter). It is filed as cell-based. The following applies: Homo sapiens, THP1-Dual, 18 h of stimulation, luminescence. An outline of the steps: (§1)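 THP-1 dual cells stimulated 18 h with STING agonist; medium then sampled. IRF pathway: luciferase (ISG54 promoter/ISRE) read as luminescence immediately after reagent addition. NF-κB pathway: SEAP (IFN-β minimal promoter/NF-κB elements) developed 2 h at 37 °C, absorbance at 630 nm.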

The test system of test [2] is NF-κB pathway in THP-1 dual cells. Kind of test: THP-1 Dual Reporter Assay, NF-κB pathway (SEAP reporter). The test is classed as cell-based. The note with it: Homo sapiens, THP1-Dual, 18 h of stimulation, absorbance at 630 nm, read-out: THP1 Dual EC50 (μM) NFkB. The method, boiled down: as §1
A general note: Reporter assays use an easily measured gene product as a stand-in for the process of interest.

In test [3] the target is human STING (Homo sapiens, UniProt Q86WV6). In words: Fluorescence Thermal Shift assay. It is filed as binding. The note with it: 50 μM compound; STING 0.1 mg/ml; 20 minutes preincubation; read-out: [hSTING] FTS, ΔTm [° C.] for 50 μM. An outline of the steps:
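Human STING at a final 0.1 mg/ml was preincubated with compound for 20 min in 50 mM Hepes, 150 mM NaCl, pH 7.5, then SyproOrange dye was added. Thermal unfolding ran from 25 to 99° C at 0.033° C/s, continuous ramp. Values are reported as ΔTm (° C).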

Data on 23 compounds can be found in patent US12162863B2, “Modulators of stimulator of interferon genes (STING)” (RYVU THERAPEUTICS S.A., priority 2018, dated 2024).

One may read the EC50 as the concentration needed to bring the measured effect to its halfway point. A word on the ΔTm: it is the change in melting temperature against a reference sample.

Chain of human STING (Q86WV6 whole entry H232R): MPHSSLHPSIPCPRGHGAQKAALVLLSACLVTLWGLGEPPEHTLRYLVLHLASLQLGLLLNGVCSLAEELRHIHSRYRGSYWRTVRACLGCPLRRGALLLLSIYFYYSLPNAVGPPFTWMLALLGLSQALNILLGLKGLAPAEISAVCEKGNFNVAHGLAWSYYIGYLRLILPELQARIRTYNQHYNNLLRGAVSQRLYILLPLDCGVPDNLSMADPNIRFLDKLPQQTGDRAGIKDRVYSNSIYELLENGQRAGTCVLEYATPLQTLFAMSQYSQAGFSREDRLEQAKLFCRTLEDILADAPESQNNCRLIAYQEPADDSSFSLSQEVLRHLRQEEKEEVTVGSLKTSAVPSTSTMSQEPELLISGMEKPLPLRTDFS

As to `COc1cc(CN(CCCn2cnc3cncnc32)Cc2c(C)oc3cc(Br)c(F)cc3c2=O)ccn1` [Example 78, 7-bromo-6-fluoro-3-({[(2-methoxypyridin-4-yl)methyl][3-(9H-purin-9-yl)propyl]amino}methyl)-2-methyl-4H-chromen-4-one], the EC50 in test [1] and in test [2] was no more than 10 µM in each case. Besides, the ΔTm at 50 µM in test [3] is greater than 2.5 °C.
On to `Cc1oc2cc(N3CCN(C)CC3)c(F)cc2c(=O)c1CN(CCCn1cnc2cncnc21)Cc1ccncc1` [Example 79, 6-fluoro-2-methyl-7-(4-methylpiperazin-1-yl)-3-({[3-(9H-purin-9-yl)propyl][(pyridin-4-yl)methyl]amino}methyl)-4H-chromen-4-one], for which the concentration for a half-maximal effect (EC50) in test [1] and in test [2] was no more than 10 µM in each case. The ΔTm at 50 µM in test [3] is greater than 2.5 °C.
`Cc1oc2cc(C(=O)O)c(F)cc2c(=O)c1CN(CCCc1cccnc1)Cc1ccncc1` [Example 80, 6-fluoro-2-methyl-4-oxo-3-({[3-(pyridin-3-yl)propyl][(pyridin-4-yl)methyl]amino}methyl)-4H-chromene-7-carboxylic acid]: the EC50 in test [1] and in test [2] was no less than 20 µM in each case. Further, the ΔTm at 50 µM in test [3] is less than 2.5 °C.
With `Cc1ccc2c(=O)c(CN(CCCn3cnc4c(N)ncnc43)Cc3ccncc3)c(C)oc2c1C` [Example 81, 3-({[3-(6-amino-9H-purin-9-yl)propyl][(pyridin-4-yl)methyl]amino}methyl)-2,7,8-trimethyl-4H-chromen-4-one], the EC50 in test [1] is no less than 20 µM; in test [2], 10 to 20 µM. Moreover, in test [3], the ΔTm at 50 µM was greater than 2.5 °C.
For the compound `COc1cc(CN(CCCn2cnc3ccccc32)Cc2cn(C)c3ccccc3c2=O)ccn1` [Example 82, 3-({[3-(1H-1,3-benzodiazol-1-yl)propyl][(2-methoxypyridin-4-yl)methyl]amino}methyl)-1-methyl-1,4-dihydroquinolin-4-one], the concentration giving a half-maximal response (EC50) in test [1] and in test [2] was no more than 10 µM throughout. For the same compound, the ΔTm at 50 µM in test [3] is greater than 2.5 °C.
Regarding `COc1cc(CN(Cc2coc3c(ccc4ccccc43)c2=O)C(C)CCc2cccnc2)ccn1` (stereo not drawn) [Example 83, 3-({[(2-methoxypyridin-4-yl)methyl][4-(pyridin-3-yl)butan-2-yl]amino}methyl)-4H-benzo[h]chromen-4-one], the EC50 in test [1] and in test [2] was no more than 10 µM in each case. The ΔTm at 50 µM in test [3] is less than 2.5 °C.
For the compound `COc1cc(CN(CCCn2cnc3cncnc32)Cc2c(C)oc3cc(N4CCN(C)CC4)c(F)cc3c2=O)ccn1` [Example 84, 6-fluoro-2-methyl-7-(4-methylpiperazin-1-yl)-3-({[3-(9H-purin-9-yl)propyl][(2-methoxypyridin-4-yl)methyl]amino}methyl)-4H-chromen-4-one], the EC50 was 10 to 20 µM in test [1] and no more than 10 µM in test [2]. Also, the ΔTm at 50 µM in test [3] is greater than 2.5 °C.
As to `O=c1c(CN(CCCn2cnc3ccccc32)Cc2ccncc2F)coc2c1ccc1ccccc12` [Example 85, 3-({[3-(1H-1,3-benzodiazol-1-yl)propyl][(3-fluoropyridin-4-yl)methyl]amino}methyl)-4H-benzo[h]chromen-4-one], the EC50 in test [1] and in test [2] was no less than 20 µM each time. Besides, the ΔTm at 50 µM in test [3] is less than 2.5 °C.
Regarding `COc1cc(CN(CCCn2cnc3ccccc32)Cc2c[nH]c3ccccc3c2=O)ccn1` [Example 88, 3-({[3-(1H-1,3-benzodiazol-1-yl)propyl][(2-methoxypyridin-4-yl)methyl]amino}methyl)-1,4-dihydroquinolin-4-one], the EC50 in test [1] and in test [2] was no less than 20 µM in each case. Further, the ΔTm at 50 µM in test [3] was greater than 2.5 °C.
For `COc1cc(CN(CCCn2cnc3cncnc32)Cc2cn(C)c3ccccc3c2=O)ccn1` [Example 89, 3-({[(2-methoxypyridin-4-yl)methyl][3-(9H-purin-9-yl)propyl]amino}methyl)-1-methyl-1,4-dihydroquinolin-4-one], the EC50 in test [1] and in test [2] was no more than 10 µM throughout. The ΔTm at 50 µM in test [3] was less than 2.5 °C.
With `Cn1cc(CN(CCCc2cccnc2)Cc2ccnc(Cl)c2)c(=O)c2ccccc21` [Example 90, 3-({[(2-chloropyridin-4-yl)methyl][3-(pyridin-3-yl)propyl]amino}methyl)-1-methyl-1,4-dihydroquinolin-4-one], the EC50 in test [1] was no more than 10 µM; in test [2], 10 to 20 µM. Also, the ΔTm at 50 µM in test [3] was greater than 2.5 °C.
As to `COc1cc(CN(CCCn2cnc3ncncc32)Cc2cn(C)c3ccccc3c2=O)ccn1` [Example 91, 3-({[(2-methoxypyridin-4-yl)methyl][3-(7H-purin-7-yl)propyl]amino}methyl)-1-methyl-1,4-dihydroquinolin-4-one], the EC50 in test [1] and in test [2] was no less than 20 µM in each case. In addition, the thermal shift (ΔTm) at 50 µM in test [3] was less than 2.5 °C.
Take `COc1cc(CN(CCCc2cc[nH]c(=O)c2)Cc2coc3c(ccc4ccccc43)c2=O)ccn1` [Example 93, 4-(3-{[(2-methoxypyridin-4-yl)methyl]({4-oxo-4H-benzo[h]chromen-3-yl}methyl)amino}propyl)-1,2-dihydropyridin-2-one]: the EC50 in test [1] and in test [2] was no less than 20 µM throughout. Further, in test [3], the thermal shift (ΔTm) at 50 µM was greater than 2.5 °C.
`COc1cc(CN(CCCc2cccnc2)Cc2nn(C)c3ccccc3c2=O)ccn1` [Example 94, 3-({[(2-methoxypyridin-4-yl)methyl][3-(pyridin-3-yl)propyl]amino}methyl)-1-methyl-1,4-dihydrocinnolin-4-one]: the EC50 in test [1] is no more than 10 µM; in test [2] it was no less than 20 µM. Moreover, the ΔTm at 50 µM in test [3] is greater than 2.5 °C.
For `COc1cc(CN(CCCc2cccnc2)Cc2cn(C3CC3)c3cc(F)c(F)cc3c2=O)ccn1` [Example 95, 1-cyclopropyl-6,7-difluoro-3-({[(2-methoxypyridin-4-yl)methyl][3-(pyridin-3-yl)propyl]amino}methyl)-1,4-dihydroquinolin-4-one] the same measures were no more than 10 µM, 10 to 20 µM and greater than 2.5 °C.
As for `COc1cc(CN(CCCc2cncnc2)Cc2cn(C)c3ccccc3c2=O)ccn1` [Example 96, 3-({[(2-methoxypyridin-4-yl)methyl][3-(pyrimidin-5-yl)propyl]amino}methyl)-1-methyl-1,4-dihydroquinolin-4-one], the EC50 in test [1] and in test [2] was no more than 10 µM each time. The ΔTm at 50 µM in test [3] was greater than 2.5 °C.
Take `COc1cc(CN(Cc2cn(C)c3ccccc3c2=O)C(C)CCc2cccnc2)ccn1` (stereo not drawn) [Example 97, 3-({[(2-methoxypyridin-4-yl)methyl][4-(pyridin-3-yl)butan-2-yl]amino}methyl)-1-methyl-1,4-dihydroquinolin-4-one]: the EC50 in test [1] and in test [2] was no more than 10 µM in each case. Further, the ΔTm at 50 µM in test [3] is greater than 2.5 °C.
In the case of `COc1cc(CN(CCCc2cccnc2)Cc2n[nH]c3ccccc3c2=O)ccn1` [Example 98, 3-({[(2-methoxypyridin-4-yl)methyl][3-(pyridin-3-yl)propyl]amino}methyl)-1,4-dihydrocinnolin-4-one], the EC50 in test [1] was 10 to 20 µM; in test [2] it was no less than 20 µM. The thermal shift (ΔTm) at 50 µM in test [3] was greater than 2.5 °C.
With `Cc1oc2cc(F)c(F)cc2c(=O)c1CN(CCCn1cnc2ccccc21)Cc1ccncc1` [Example 99, 3-({[3-(1H-1,3-benzodiazol-1-yl)propyl][(pyridin-4-yl)methyl]amino}methyl)-6,7-difluoro-2-methyl-4H-chromen-4-one], the EC50 in test [1] and in test [2] was no more than 10 µM throughout. Besides, the ΔTm at 50 µM in test [3] was greater than 2.5 °C.
As for `Cc1cc(CN(CCCn2cnc3ccccc32)Cc2cn(C)c3ccccc3c2=O)ccn1` [Example 100, 3-({[3-(1H-1,3-benzodiazol-1-yl)propyl][(2-methylpyridin-4-yl)methyl]amino}methyl)-1-methyl-1,4-dihydroquinolin-4-one], the EC50 in test [1] and in test [2] was no more than 10 µM throughout. In addition, the shift in melting temperature (ΔTm) at 50 µM in test [3] was greater than 2.5 °C.
As to `Cc1cc(CN(CCCc2cccnc2)Cc2cn(C)c3ccccc3c2=O)ccn1` [Example 101, 1-methyl-3-({[(2-methylpyridin-4-yl)methyl][3-(pyridin-3-yl)propyl]amino}methyl)-1,4-dihydroquinolin-4-one], the EC50 was no more than 10 µM in test [1] and 10 to 20 µM in test [2]. Moreover, in test [3], the ΔTm at 50 µM is greater than 2.5 °C.
With `COc1cc(CN(CCCc2ccnnc2)Cc2cn(C)c3ccccc3c2=O)ccn1` [Example 102, 3-({[(2-methoxypyridin-4-yl)methyl][3-(pyridazin-4-yl)propyl]amino}methyl)-1-methyl-1,4-dihydroquinolin-4-one], the EC50 in test [1] and in test [2] was no less than 20 µM each time. The ΔTm at 50 µM in test [3] is less than 2.5 °C.
With `COc1cc(CN(CCCn2cc(C(N)=O)nn2)Cc2cn(C)c3ccccc3c2=O)ccn1` [Example 103, 1-(3-{[(2-methoxypyridin-4-yl)methyl][(1-methyl-4-oxo-1,4-dihydroquinolin-3-yl)methyl]amino}propyl)-1H-1,2,3-triazole-4-carboxamide], the EC50 in test [1] and in test [2] was no less than 20 µM in each case. Besides, in test [3], the thermal shift (ΔTm) at 50 µM was less than 2.5 °C.
